Data as given in patent US20250066322A1, “SUBSTITUTED HETEROCYCLIC COMPOUNDS” (BRISTOL-MYERS SQUIBB COMPANY, priority 2021, published 2025).
Read-outs that look alike come from different tables or passages of the source.

System: IFNα-Induced STAT Phosphorylation (pSTAT5)
Test: IFNα-Induced STAT Phosphorylation in Human Whole Blood
Format: cell-based
Details: 1 h incubation with compound, then 1000 U/mL recombinant human IFNα A/D for 15 min, pSTAT5 in CD3 positive population, read-out: Human Whole blood IFNa pSTAT5 IC50
Procedure: IFNα-Induced STAT Phosphorylation in Human Whole Blood
After an hour long incubation with compound, human whole blood (drawn with ACD-A as anticoagulant) was stimulated with 1000 U/mL recombinant human IFNα A/D (R&D Systems 11200-2) for 15 min. The stimulation was stopped by adding Fix/Lyse buffer (BD 558049). Cells were stained with a CD3 FITC antibody (BD 555916), washed, and permeabilized on ice using Perm III buffer (BD 558050). Cells were then stained with an Alexa-Fluor 647 pSTAT5 (pY694) antibody (BD 612599) for 60 min prior to analysis on the iQue Plus. The amount of pSTAT5 expression was quantitated by median fluorescence intensity after gating on the CD3 positive population.

| Structure (SMILES) | IC50 [nM] | IC50 (Homo sapiens) [nM] |
| --- | --- | --- |
| [2H]C([2H])([2H])NC(=O)c1nnc(NC(=O)C2CC2C)cc1Nc1ncccc1S(=O)(=O)C(F)F (single isomer, unassigned) [Example 13a, 4-((3-((difluoromethyl)sulfonyl)pyridin-2-yl)amino)-N-(methyl-d3)-6-(2-methylcyclopropane-1-carboxamido)pyridazine-3-carboxamide] | 110 |  |
| [2H]C([2H])([2H])NC(=O)c1nnc(NC(=O)C2CC2C)cc1Nc1ncccc1S(=O)(=O)C(F)F (single isomer, unassigned) [Example 13b, 4-((3-((difluoromethyl)sulfonyl)pyridin-2-yl)amino)-N-(methyl-d3)-6-(2-methylcyclopropane-1-carboxamido)pyridazine-3-carboxamide] | 10 |  |
| CCC(=O)c1cnc(NC(=O)C2CC2C)cc1Nc1ncccc1S(=O)(=O)C(F)F (single isomer, unassigned) [Example 21a, N-(4-((3-((difluoromethyl)sulfonyl)pyridin-2-yl)amino)-5-propionylpyridin-2-yl)-2-methylcyclopropane-1-carboxamide] | 1400 |  |
| CCC(=O)c1cnc(NC(=O)C2CC2C)cc1Nc1ncccc1S(=O)(=O)C(F)F (single isomer, unassigned) [Example 21b, N-(4-((3-((difluoromethyl)sulfonyl)pyridin-2-yl)amino)-5-propionylpyridin-2-yl)-2-methylcyclopropane-1-carboxamide] | 50 |  |
| [2H]C([2H])([2H])NC(=O)c1nnc(NC(=O)C2CC2)cc1Nc1ncccc1S(=O)(=O)C1CC1 [Example 1, 6-(cyclopropanecarboxamido)-4-((3-(cyclopropylsulfonyl)pyridin-2-yl)amino)-N-(methyl-d3) pyridazine-3-carboxamide] |  | 70 |
| [2H]C([2H])([2H])NC(=O)c1nnc(NC(=O)OC)cc1Nc1ncccc1S(=O)(=O)C1CC1 [Example 2, methyl (5-((3-(cyclopropylsulfonyl)pyridin-2-yl)amino)-6-((methyl-d3)carbamoyl)pyridazin-3-yl)carbamate] |  | 670 |
| CCC(=O)c1cnc(NC(=O)C2CC2)cc1Nc1ncccc1S(=O)(=O)C1CC1 [Example 3, N-(4-((3-(cyclopropylsulfonyl)pyridin-2-yl)amino)-5-propionylpyridin-2-yl)cyclopropanecarboxamide] |  | 590 |
| [2H]C([2H])([2H])NC(=O)c1nnc(NC(=O)C2CC2)cc1Nc1ncccc1S(=O)(=O)C(F)F [Example 4, 6-(cyclopropanecarboxamido)-4-((3-((difluoromethyl)sulfonyl)-pyridin-2-yl)amino)-N-(methyl-d3)pyridazine-3-carboxamide] |  | 30 |
| [2H]C([2H])([2H])NC(=O)c1nnc(NC(=O)OC)cc1Nc1ncccc1S(=O)(=O)C(F)F [Example 5, methyl (5-((3-((difluoromethyl)-sulfonyl)pyridin-2-yl)amino)-6-((methyl-d3)carbamoyl)-pyridazin-3-yl)carbamate] |  | 250 |
| [2H]C([2H])([2H])NC(=O)c1nnc(NC(=O)N(C)C)cc1Nc1ncccc1S(=O)(=O)C(F)F [Example 6, 4-((3-((difluoromethyl)sulfonyl)pyridin-2-yl)amino)-6-(3,3-dimethylureido)-N-(methyl-d3)pyridazine-3-carboxamide] |  | 210 |
| CCC(=O)c1cnc(NC(=O)C2CC2)cc1Nc1ncccc1S(=O)(=O)C(F)F [Example 15, N-(4-((3-((difluoromethyl)sulfonyl)pyridin-2-yl)amino)-5-propionylpyridin-2-yl)cyclopropanecarboxamide] |  | 150 |
| CCC(=O)c1cnc(NC(=O)N(C)C)cc1Nc1ncccc1S(=O)(=O)C(F)F [Example 16, 3-(4-((3-((difluoromethyl)sulfonyl)pyridin-2-yl)amino)-5-propionylpyridin-2-yl)-1,1-dimethylurea] |  | 980 |
| CCC(=O)c1cnc(NC(=O)[C@@H]2CC23CC3)cc1Nc1ncccc1S(=O)(=O)C(F)F [Example 17] | 960 |  |
| CCC(=O)c1cnc(NC(=O)[C@H]2C[C@@H]2C)cc1Nc1ncccc1S(=O)(=O)C(F)F [Example 18, (1S,2S)-N-(4-((3-((difluoromethyl)sulfonyl)pyridin-2-yl)amino)-5-propionylpyridin-2-yl)-2-methylcyclopropane-1-carboxamide] |  | 850 |
| CCC(=O)c1cnc(NC(=O)[C@H]2C[C@@H]2F)cc1Nc1ncccc1S(=O)(=O)C(F)F [Example 20, (1R,2S)-N-(4-((3-((difluoromethyl)sulfonyl)pyridin-2-yl)amino)-5-propionylpyridin-2-yl)-2-fluorocyclopropane-1-carboxamide] |  | 460 |
| CCC(=O)c1cnc(Nc2cccc(F)n2)cc1Nc1ncccc1S(=O)(=O)C(F)F [Example 22, 1-(4-((3-((difluoromethyl)sulfonyl)pyridin-2-yl)amino)-6-((6-fluoropyridin-2-yl)amino)pyridin-3-yl)propan-1-one] |  | 220 |
